Results published in patent US20230063538A1, “LARGE SCALE PROCESS” (GALECTO BIOTECH AB, priority 2019, published 2023).

Assay: Solid-state characterisation of polymorphic Form 1 (hygroscopicity)
Format: physicochemical
Settings: crystalline polymorphic Form 1 of the compound of formula (I)

Compound: OC[C@H]1O[C@H](Sc2cncc(Br)c2)[C@H](O)[C@@H](n2cc(-c3cc(F)c(F)c(F)c3)nn2)[C@H]1O [Form 1, 5-Bromopyridin-3-yl 3-deoxy-3-[4-(3,4,5-trifluorophenyl)-1H-1,2,3-triazol-1-yl]-1-thio-α-D-galactopyranoside]
- hygroscopicity: not hygroscopic
